Laboratory results reported in patent publication US10189854B2, “Substituted pyrimidine compounds” (Grünenthal GmbH, priority 2014, dated 2019).

These compounds were tested against human PDE4B1 (Homo sapiens (Human), UniProt Q07343) (assay: TR-FRET assay using the LANCE Ultra cAMP kit to determine the activity of hPDE4B1). Conditions: IC50 inhibition of PDE4B, mean.
Format: biochemical
Summary of the method: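 Recombinant human PDE4B1 (Sf9-expressed, 0.96 U) incubated with compound and 500 nM cAMP in 50 mM Tris-HCl, 50 mM MgCl2, 5 mM DTT, pH 8.5, 30 min at room temperature. Residual cAMP read by TR-FRET (665/620 nm ratio) after IBMX stop. IC50 from ten-concentration curves as % inhibition of control.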

human PDE4B1, sequence (Q07343 whole entry): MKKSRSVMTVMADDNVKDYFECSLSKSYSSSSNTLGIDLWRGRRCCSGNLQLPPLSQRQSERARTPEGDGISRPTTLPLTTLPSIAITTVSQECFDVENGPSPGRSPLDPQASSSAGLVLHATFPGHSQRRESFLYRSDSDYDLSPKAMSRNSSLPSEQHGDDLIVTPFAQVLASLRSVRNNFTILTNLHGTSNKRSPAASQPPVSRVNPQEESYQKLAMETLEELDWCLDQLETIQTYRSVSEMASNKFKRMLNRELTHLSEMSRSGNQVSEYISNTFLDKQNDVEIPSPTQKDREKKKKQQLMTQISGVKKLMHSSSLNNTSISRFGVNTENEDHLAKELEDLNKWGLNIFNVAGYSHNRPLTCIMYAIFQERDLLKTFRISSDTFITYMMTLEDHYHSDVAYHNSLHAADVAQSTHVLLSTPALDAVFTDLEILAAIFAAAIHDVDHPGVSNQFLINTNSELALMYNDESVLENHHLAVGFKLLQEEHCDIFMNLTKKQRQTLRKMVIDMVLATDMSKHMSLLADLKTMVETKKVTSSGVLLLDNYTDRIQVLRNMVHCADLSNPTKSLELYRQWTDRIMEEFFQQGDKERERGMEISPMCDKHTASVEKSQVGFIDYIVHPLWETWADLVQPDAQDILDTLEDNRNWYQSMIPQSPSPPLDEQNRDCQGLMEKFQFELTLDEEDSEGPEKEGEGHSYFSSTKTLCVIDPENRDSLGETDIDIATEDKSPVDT

Row | SMILES | IC50 [µM]
1 | O=C(c1ccc2c(c1)N(c1ncc(-c3ccccc3F)cn1)CC21CC1)N1CCC[C@H](CO)C1 [Compound 317, [1-[5-(2-Fluorophenyl)-pyrimidin-2-yl]-spiro[1,2-dihydro-indole-3,1′-cyclopropane]-6-yl]-[(3S)-3-(hydroxymethyl)-piperidin-1-yl]-methanone] | < 0.1
2 | N[C@@H]1CCN(C(=O)c2ccc3c(c2)N(c2ncc(-c4ccccn4)cn2)CC32CC2)C1 [Compound 329, [(3R)-3-Amino-pyrrolidin-1-yl]-[1-(5-pyridin-2-yl-pyrimidin-2-yl)-spiro[1,2-dihydro-indole-3,1′-cyclopropane]-6-yl]-methanone] | < 0.1
3 | COc1ccnc(-c2cnc(N3CC4(CC4)c4ccc(C(=O)N5CC[C@@H](N)C5)cc43)nc2)c1 [Compound 330, [(3R)-3-Amino-pyrrolidin-1-yl]-[1-[5-(4-methoxy-pyridin-2-yl)-pyrimidin-2-yl]-spiro[1,2-dihydro-indole-3,1′-cyclopropane]-6-yl]-methanone] | < 0.1
4 | CC(C)c1ccnc(-c2cnc(N3CC4(CC4)c4ccc(C(=O)N5CC[C@@H](N)C5)cc43)nc2)c1 [Compound 331, [(3R)-3-Amino-pyrrolidin-1-yl]-[1-[5-(4-isopropyl-pyridin-2-yl)-pyrimidin-2-yl]-spiro[1,2-dihydro-indole-3,1′-cyclopropane]-6-yl]-methanone] | < 0.1
5 | O=C(c1ccc2c(c1)N(c1ncc(-c3cc(C4CC4)ccn3)cn1)CC21CC1)N1CCC[C@H](CO)C1 [Compound 332, [1-[5-(4-Cyclopropyl-pyridin-2-yl)-pyrimidin-2-yl]-spiro[1,2-dihydro-indole-3,1′-cyclopropane]-6-yl]-[(3S)-3-(hydroxymethyl)-piperidin-1-yl]-methanone] | < 0.1
6 | CN(CCO)C(=O)c1ccc2c(c1)N(c1ncc(-c3cc(NCC4CC4)ccc3F)cn1)CC21CC1 [Compound 333, 1-[5-[5-(Cyclopropyl-methylamino)-2-fluoro-phenyl]-pyrimidin-2-yl]-N-(2-hydroxy-ethyl)-N-methyl-spiro[1,2-dihydro-indole-3,1′-cyclopropane]-6-carboxylic acid amide] | < 0.1
7 | Cc1ccnc(-c2cnc(N3CC4(CC4)c4ccc(C(=O)N5CC[C@@H](N)C5)cc43)nc2)c1 [Compound 334, [(3R)-3-Amino-pyrrolidin-1-yl]-[1-[5-(4-methyl-pyridin-2-yl)-pyrimidin-2-yl]-spiro[1,2-dihydro-indole-3,1′-cyclopropane]-6-yl]-methanone] | < 0.1
8 | N[C@@H]1CCN(C(=O)c2ccc3c(c2)N(c2ncc(-c4cc(C5CC5)ccn4)cn2)CC32CC2)C1 [Compound 335, (R)-(3-aminopyrrolidin-1-yl)(1′-(5-(4-cyclopropylpyridin-2-yl)pyrimidin-2-yl)spiro[cyclopropane-1,3′-indolin]-6′-yl)methanone] | < 0.1
9 | O=C(c1ccc2c(c1)N(c1ncc(-c3cc(C4CC4)ccn3)cn1)CC21CC1)N1CCC[C@@H](CO)C1 [Compound 336, [1-[5-(4-Cyclopropyl-pyridin-2-yl)-pyrimidin-2-yl]-spiro[1,2-dihydro-indole-3,1′-cyclopropane]-6-yl]-[(3R)-3-(hydroxymethyl)-piperidin-1-yl]-methanone] | < 0.1

Now from value to compound:

Row | IC50 [µM] | SMILES
10 | < 0.1 | CC(O)c1ccnc(-c2cnc(N3CC4(CC4)c4ccc(C(=O)N(C)CCO)cc43)nc2)c1 (centres unmarked) [Compound 318, N-(2-Hydroxy-ethyl)-1-[5-[4-(1-hydroxy-ethyl)-pyridin-2-yl]-pyrimidin-2-yl]-N-methyl-spiro[1,2-dihydro-indole-3,1′-cyclopropane]-6-carboxylic acid amide]
11 | < 0.1 | CN(CCO)C(=O)c1ccc2c(c1)N(c1ncc(-c3cc(NCC4CC4)ccn3)cn1)CC21CC1 [Compound 319, 1-[5-[4-(Cyclopropyl-methylamino)-pyridin-2-yl]-pyrimidin-2-yl]-N-(2-hydroxy-ethyl)-N-methyl-spiro[1,2-dihydro-indole-3,1′-cyclopropane]-6-carboxylic acid amide]
12 | < 0.1 | CN(CC(N)=O)C(=O)c1ccc2c(c1)N(c1ncc(-c3ccccn3)cn1)CC21CC1 [Compound 320, N-(2-amino-2-oxoethyl)-N-methyl-1′-(5-(pyridin-2-yl)pyrimidin-2-yl)spiro[cyclopropane-1,3′-indoline]-6′-carboxamide]
13 | < 0.1 | COc1ccnc(-c2cnc(N3CC4(CC4)c4ccc(C(=O)N(C)CC(N)=O)cc43)nc2)c1 [Compound 321, N-(Carbamoyl-methyl)-1-[5-(4-methoxy-pyridin-2-yl)-pyrimidin-2-yl]-N-methyl-spiro[1,2-dihydro-indole-3,1′-cyclopropane]-6-carboxylic acid amide]
14 | < 0.1 | CC(O)c1cccc(-c2cnc(N3CC4(CC4)c4ccc(C(=O)N(C)CCO)cc43)nc2)c1 (centres unmarked) [Compound 322, N-(2-Hydroxy-ethyl)-1-[5-[3-(1-hydroxy-ethyl)-phenyl]-pyrimidin-2-yl]-N-methyl-spiro[1,2-dihydro-indole-3,1′-cyclopropane]-6-carboxylic acid amide]
15 | < 0.1 | CN(CCO)C(=O)c1ccc2c(c1)N(c1ncc(-c3cn(C)cn3)cn1)CC21CC1 [Compound 323, N-(2-Hydroxy-ethyl)-N-methyl-1-[5-(1-methyl-1H-imidazol-4-yl)-pyrimidin-2-yl]-spiro[1,2-dihydro-indole-3,1′-cyclopropane]-6-carboxylic acid amide]
16 | < 0.1 | Cc1nc(-c2cnc(N3CC4(CC4)c4ccc(C(=O)N(C)CCO)cc43)nc2)cs1 [Compound 324, N-(2-Hydroxy-ethyl)-N-methyl-1-[5-(2-methyl-thiazol-4-yl)-pyrimidin-2-yl]-spiro[1,2-dihydro-indole-3,1′-cyclopropane]-6-carboxylic acid amide]
17 | < 0.1 | CCc1nc(-c2cnc(N3CC4(CC4)c4ccc(C(=O)N(C)CCO)cc43)nc2)cs1 [Compound 325, 1-[5-(2-Ethyl-thiazol-4-yl)-pyrimidin-2-yl]-N-(2-hydroxy-ethyl)-N-methyl-spiro[1,2-dihydro-indole-3,1′-cyclopropane]-6-carboxylic acid amide]
18 | < 0.1 | CN(CCO)C(=O)c1ccc2c(c1)N(c1ncc(-c3csc(CO)n3)cn1)CC21CC1 [Compound 326, N-(2-Hydroxy-ethyl)-1-[5-[2-(hydroxymethyl)-thiazol-4-yl]-pyrimidin-2-yl]-N-methyl-spiro[1,2-dihydro-indole-3,1′-cyclopropane]-6-carboxylic acid amide]
19 | < 0.1 | CN(CCO)C(=O)c1ccc2c(c1)N(c1ncc(-c3csc(C(N)=O)n3)cn1)CC21CC1 [Compound 327, 4-[2-[6-[(2-Hydroxy-ethyl)-methyl-carbamoyl]-spiro[1,2-dihydro-indole-3,1′-cyclopropane]-1-yl]-pyrimidin-5-yl]-thiazole-2-carboxylic acid amide]
20 | < 0.1 | COc1cc(OC)nc(-c2cnc(N3CC4(CC4)c4ccc(C(=O)N(C)CCO)cc43)nc2)c1 [Compound 328, 1-[5-(4,6-Dimethoxy-pyridin-2-yl)-pyrimidin-2-yl]-N-(2-hydroxy-ethyl)-N-methyl-spiro[1,2-dihydro-indole-3,1′-cyclopropane]-6-carboxylic acid amide]
